Laboratory results published in patent publication US8895578B2, “Carboxamide, sulfonamide and amine compounds and methods for using the same” (Rigel Pharmaceuticals, Inc., priority 2007, dated 2014).

Biological target: AMPK
Test: AMPK activation, enzyme-linked immunosorbent assay
Format: biochemical
Experimental: Compounds 1-54 were assayed for their ability to activate AMPK using an enzyme-linked immunosorbent assay.
Compounds 55-62 of Table 1 were assayed for their ability to activate AMPK using an enzyme-linked immunosorbent assay.
Compounds 63-66 of Table 1 were assayed for their ability to activate AMPK using an enzyme-linked immunosorbent assay.
Compounds 67-71 of Table 1 were assayed for their ability to activate AMPK using an enzyme-linked immunosorbent assay.
Compound 72 of Table 1 was assayed for its ability to activate AMPK using an enzyme-linked immunosorbent assay.

SMILES	EC50 (Table 2, ELISA) [nM]	further results
N#Cc1ccc(CN2CCC(NC(=O)c3ccc4[nH]c5c(c4c3)CN(Cc3ccc(C(F)(F)F)cc3)CC5)CC2)cc1 [Compound 12, N-(1-(4-cyanobenzyl)piperidin-4-yl)-2-(4-(trifluoromethyl)benzyl)-2,3,4,5-tetrahydro-1H-pyrido[4,3-b]indole-8-carboxamide]	< 500	–
O=C(NC1CCN(Cc2ccc(C(F)(F)F)cc2)CC1)c1cnc2ccc(OC3CCN(c4ccc(C(F)(F)F)cc4)CC3)cc2c1 [Compound 70, N-(1-(4-(trifluoromethyl)benzyl)piperidin-4-yl)-6-(1-(4-(trifluoromethyl)phenyl)piperidin-4-yloxy) quinoline-3-carboxamide]	–	EC50 (Table 5, ELISA): < 100 nM
N#Cc1ccc(NC(=O)N2CCC(NC(=O)c3ccc4[nH]c5c(c4c3)CN(Cc3ccc(C(F)(F)F)cc3)CC5)CC2)cc1 [Compound 27, N-(1-(4-cyanophenyl-carbamoyl)piperidin-4-yl)-2-(4-(trifluoro-methyl)benzyl)-2,3,4,5-tetrahydro-1H-pyrido [4,3-b]indole-8-carboxamide]	1000 to 5000	–
O=C(NC1CCN(Cc2ccccc2)CC1)c1ccc(CN2CCN(Cc3ccccc3)CC2)cc1 [Compound 55, 4-((4-benzylpiperazin-1-yl)methyl)-N-(1-benzyl-piperidin-4-yl)benzamide]	–	EC50 (Table 3, ELISA): < 100 nM
O=C(NC1CCN(Cc2ccncc2)CC1)c1ccc2[nH]c3c(c2c1)CN(Cc1ccccc1)CC3 [Compound 7, 2-benzyl-N-(1-(pyridin-4-ylmethyl)piperidin-4-yl)-2,3,4,5-tetrahydro-1H-pyrido[4,3-b]indole-8-carboxamide]	5000 to 10000	–
N#Cc1ccc(S(=O)(=O)N2CCC(NC(=O)c3ccc4[nH]c5c(c4c3)CN(Cc3ccc(C(F)(F)F)cc3)CC5)CC2)cc1 [Compound 21, N-(1-(4-cyanophenyl-sulfonyl)piperidin-4-yl)-2-(4-(trifluoromethyl)benzyl)-2,3,4,5-tetrahydro-1H-pyrido[4,3-b]indole-8-carboxamide]	500 to 1000	–
O=C(NC1CCN(S(=O)(=O)c2cccnc2)CC1)c1ccc2[nH]c3c(c2c1)CN(Cc1ccc(C(F)(F)F)cc1)CC3 [Compound 22]	500 to 1000	–
O=C(NC1CCN(Cc2ccccc2)CC1)c1ccc2[nH]c3c(c2c1)CN(S(=O)(=O)c1ccc(C(F)(F)F)cc1)CC3 [Compound 19, N-(1-benzylpiperidin-4-yl)-2-(4-(trifluoromethyl)phenylsulfonyl)-2,3,4,5-tetrahydro-1H-pyrido [4,3-b]indole-8-carboxamide]	> 100000	–
N#Cc1ccc(CN2CCC(NC(=O)c3ccc(CN4CCN(Cc5ccccc5)CC4)cc3)CC2)cc1 [Compound 61, 4-((4-benzylpiperazin-1-yl)methyl)-N-(1-(4-cyanobenzyl)piperidin-4-yl)benzamide]	–	EC50 (Table 3, ELISA): < 100 nM
Cn1c2c(c3cc(C(=O)NC4CCN(Cc5ccc(C#N)cc5)CC4)ccc31)CN(Cc1ccc(C(F)(F)F)cc1)CC2 [Compound 16, N-(1-(4-cyanobenzyl)piperidin-4-yl)-5-methyl-2-(4-(trifluoromethyl)benzyl)-2,3,4,5-tetrahydro-1H-pyrido[4,3-b]indole-8-carboxamide]	< 500	–
O=C(NC1CCN(C(=O)c2ccc(F)cc2)CC1)c1ccc2[nH]c3c(c2c1)CN(c1ccc(F)cc1)CC3 [Compound 39, N-(1-(4-fluorobenzoyl)piperidin-4-yl)-2-(4-fluorophenyl)-2,3,4,5-tetrahydro-1H-pyrido [4,3-b]indole-8-carboxamide]	10000 to 50000	–
N#Cc1ccc(CN2CCC(NC(=O)c3ccc4[nH]c5c(c4c3)CN(S(=O)(=O)c3cccnc3)CC5)CC2)cc1 [Compound 26, N-(1-(4-cyanobenzyl)piperidin-4-yl)-2-(pyridin-3-ylsulfonyl)-2,3,4,5-tetrahydro-1H-pyrido [4,3-b]indole-8-carboxamide]	10000 to 50000	–
N#Cc1ccc(CN2CCC(NC(=O)c3cnc4ccc(OC5CCN(c6ccc(C(F)(F)F)cc6)CC5)cc4c3)CC2)cc1 [Compound 69, N-(1-(4-cyanobenzyl)piperidin-4-yl)-6-(1-(4-(trifluoromethyl)phenyl)piperidin-4-yloxy) quinoline-3-carboxamide]	–	EC50 (Table 5, ELISA): < 100 nM
CC(C)(C)OC(=O)N1CCC(NC(=O)c2ccc3[nH]c4c(c3c2)CN(c2ccc(F)cc2)CC4)CC1 [Compound 38, tert-butyl 4-(2-(4-fluorophenyl)-2,3,4,5-tetrahydro-1H-pyrido[4,3-b]indole-8-carboxamido) piperidine-1-carboxylate]	10000 to 50000	–
N#Cc1ccc(CN2CCC(NC(=O)c3ccc4[nH]c5c(c4c3)CN(S(=O)(=O)c3ccc(C#N)cc3)CC5)CC2)cc1 [Compound 25, N-(1-(4-cyanobenzyl)piperidin-4-yl)-2-(4-cyanophenylsulfonyl)-2,3,4,5-tetrahydro-1H-pyrido[4,3-b]indole-8-carboxamide]	10000 to 50000	–
NC(=O)c1ccc(CN2CCc3[nH]c4ccc(C(=O)NC5CCN(Cc6ccncc6)CC5)cc4c3C2)cc1 [Compound 45, 2-(4-carbamoylbenzyl)-N-(1-(pyridin-4-ylmethyl)piperidin-4-yl)-2,3,4,5-tetrahydro-1H-pyrido [4,3-b]indole-8-carboxamide]	> 100000	–
O=C(NC1CCN(C(=O)Nc2ccc(C(F)(F)F)cc2)CC1)c1ccc2[nH]c3c(c2c1)CN(Cc1ccc(C(F)(F)F)cc1)CC3 [Compound 33, 2-(4-(trifluoromethyl)benzyl)-N-(1-(4-(trifluoro-methyl)phenylcarbamoyl)piperidin-4-yl)-2,3,4,5-tetrahydro-1H-pyrido[4,3-b]indole-8-carboxamide]	1000 to 5000	–
O=C(NC1CCN(Cc2ccc(C(F)(F)F)cc2)CC1)c1ccc2[nH]c3c(c2c1)CN(Cc1ccc(F)cc1)CC3 [Compound 10, N-(1-(4-trifluoromethyl-benzyl)piperidin-4-yl)-2-(4-fluorobenzyl)-2,3,4,5-tetrahydro-1H-pyrido[4,3-b]indole-8-carboxamide]	500 to 1000	–
N#Cc1ccc(CN2CCC(NC(=O)c3ccc4[nH]c5c(c4c3)CN(Cc3ccc(F)cc3)CC5)CC2)cc1 [Compound 9, N-(1-(4-cyanobenzyl)piperidin-4-yl)-2-(4-fluorobenzyl)-2,3,4,5-tetrahydro-1H-pyrido [4,3-b]indole-8-carboxamide]	< 500	–
Cn1c2c(c3cc(C(=O)NC4CCN(Cc5cccnc5)CC4)ccc31)CN(Cc1ccc(C(F)(F)F)cc1)CC2 [Compound 18, 5-methyl-N-(1-(pyridin-3-ylmethyl)piperidin-4-yl)-2-(4-(trifluoromethyl)benzyl)-2,3,4,5-tetrahydro-1H-pyrido[4,3-b]indole-8-carboxamide]	1000 to 5000	–
O=C(NC1CCN(Cc2ccncc2)CC1)c1ccc(CN2CCN(Cc3ccccc3)CC2)cc1 [Compound 59, 4-((4-benzylpiperazin-1-yl)methyl)-N-(1-(pyridin-4-ylmethyl)piperidin-4-yl)benzamide]	–	EC50 (Table 3, ELISA): 100 to 500 nM
NC(=O)c1ccc(CN2CCC(NC(=O)c3ccc4[nH]c5c(c4c3)CN(Cc3ccc(C(F)(F)F)cc3)CC5)CC2)cc1 [Compound 52, N-(1-(4-carbamoylbenzyl)piperidin-4-yl)-2-(4-(trifluoromethyl)benzyl)-2,3,4,5-tetrahydro-1H-pyrido[4,3-b]indole-8-carboxamide]	1000 to 5000	–
O=C(NC1CCN(Cc2cccnc2)CC1)c1ccc(CN2CCN(Cc3ccccc3)CC2)cc1 [Compound 60, 4-((4-benzylpiperazin-1-yl)methyl)-N-(1-(pyridin-3-ylmethyl)piperidin-4-yl) benzamide]	–	EC50 (Table 3, ELISA): 100 to 500 nM
O=C(NC1CCN(Cc2cocn2)CC1)c1ccc2[nH]c3c(c2c1)CN(Cc1ccc(C(F)(F)F)cc1)CC3 [Compound 54, N-(1-(oxazol-4-ylmethyl)piperidin-4-yl)-2-(4-(trifluoromethyl)benzyl)-2,3,4,5-tetrahydro-1H-pyrido[4,3-b]indole-8-carboxamide]	< 500	–
Cn1c2c(c3cc(C(=O)NC4CCN(Cc5ccc(C(F)(F)F)cc5)CC4)ccc31)CN(Cc1ccc(C(F)(F)F)cc1)CC2 [Compound 17, N-(1-(4-trifluoromethyl-benzyl)piperidin-4-yl)-5-methyl-2-(4-(trifluoro-methyl)benzyl)-2,3,4,5-tetrahydro-1H-pyrido [4,3-b]indole-8-carboxamide]	500 to 1000	–
